Reference: patent publication US10064848B2, “Pyridic ketone derivatives, method of preparing same, and pharmaceutical application thereof” (Shanghai Hengrui Pharmaceutical Co., Ltd., priority 2013, dated 2018)

Columns and labels:
CYP1A2 = target: T1, CYP1A2 (Homo sapiens, UniProt P05177); assay: In vitro CYP enzyme inhibition, human liver microsomes; assay type: in vitro ADME; settings: probe Phenacetin, single point method
T1 construct: from tissue; host or cells: human liver microsomes
T1 sequence (P05177 1-516): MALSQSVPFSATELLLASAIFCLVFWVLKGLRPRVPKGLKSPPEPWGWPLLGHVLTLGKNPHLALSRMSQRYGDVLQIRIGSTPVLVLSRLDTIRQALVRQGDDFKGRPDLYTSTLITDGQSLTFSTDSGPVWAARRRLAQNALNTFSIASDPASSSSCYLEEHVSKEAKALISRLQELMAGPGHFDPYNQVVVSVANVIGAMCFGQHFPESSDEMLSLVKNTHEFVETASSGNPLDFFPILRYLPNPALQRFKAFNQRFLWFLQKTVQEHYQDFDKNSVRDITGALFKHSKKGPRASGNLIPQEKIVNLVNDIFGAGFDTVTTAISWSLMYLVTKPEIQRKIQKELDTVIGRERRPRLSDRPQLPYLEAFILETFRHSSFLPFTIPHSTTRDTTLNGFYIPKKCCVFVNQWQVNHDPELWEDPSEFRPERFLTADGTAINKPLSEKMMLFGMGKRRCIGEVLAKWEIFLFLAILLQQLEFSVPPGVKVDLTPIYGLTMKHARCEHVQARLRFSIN
Method: (§1) Human liver microsome incubation system was used to reflect the activity of enzymes based on the amount of metabolites produced. Enzyme inhibition of the test compounds was investigated on CYP1A2, CYP2C9, […], CYP3A4m, CYP3A4t and CYP2C19, and IC50 values (a concentration of the test compound that is required for 50% inhibition of enzyme activity) were measured. […] The appropriate amount of test compound standard sample was weighed, and diluted with DMSO to 50 mM to obtain stock solution I. The stock solution I was diluted with PBS to 100 μM to obtain the reaction liquid which is to be used in incubation. [table] The reaction mixture was prepared: 60 μL [table] The above mixture was preincubated for 5 minutes at 37° C., followed by addition of 40 μL of NADPH (2.5 mM, PBS formulation). The mixture solution was incubated for 20 minutes at 37° C. All incubated samples were set to double samples. 300 μL ice-cold acetonitrile was added to terminate the reaction. The reaction solution was added with 100 μl internal standard, mixed uniformly, and centrifuged for 10 minutes at 3500 rpm. The supernatant was transferred to the LC-MS/MS analysis. The activity of enzymes was reflected by the production amount of metabolites. Using a single point method, the formula was calculated as follows: According to the known literature: IC50>10 μM belongs to weaker inhibition, 1 μM<IC50<10 μM belong to moderate inhibition, IC50<1 μM belong to strong inhibition.

CYP3A4t = target: T2, CYP3A4t (Homo sapiens, UniProt P08684); assay: as above; assay type: in vitro ADME; settings: probe Testosterone, single point method
T2 construct: from tissue; host or cells: human liver microsomes
Method: as §1

CYP3A4m = target: T3, CYP3A4m (Homo sapiens, UniProt P08684); assay: as above; assay type: in vitro ADME; settings: probe Midazolam, single point method
T3 construct: from tissue; host or cells: human liver microsomes
Method: as §1

CYP2C9 = target: T4, CYP2C9 (Homo sapiens, UniProt P11712); assay: as above; assay type: in vitro ADME; settings: probe Diclofenac, single point method
T4 construct: from tissue; host or cells: human liver microsomes
Method: as §1

CYP2C6 = CYP2C6 (Homo sapiens, UniProt P10635); assay: as above; assay type: in vitro ADME; settings: single point method
Method: as §1

CYP2C19 = target: T5, CYP2C19 (Homo sapiens, UniProt P33261); assay: as above; assay type: in vitro ADME; settings: probe (S)-Mephenytoin, single point method
T5 construct: from tissue; host or cells: human liver microsomes
Method: as §1

[1] = Pharmacokinetics assay in SD rats, intragastric administration; assay type: in vivo, Sprague-Dawley (SD) rats; settings: 10 mg/kg; for AUC / CL/F / half-life / MRT / Cmax: both sexes, Sprague-Dawley, rat, plasma, po; for AUC: read-out: Area Under Curve AUC; for CL/F: read-out: Clearance CL/F; for half-life: read-out: Half-Life T½ (converted); for MRT: read-out: Mean Residence Time MRT; for Cmax: read-out: Plasma Conc. Cmax
Method: Sprague-Dawley (SD) rats were used as test animals. The compounds of Example 1, Example 22, Example 29 and Example 31 were administered intragastrically to rats to determine the drug concentration in plasma at different time points by a LC/MS/MS method. The pharmacokinetic behavior of the compounds of the present invention was studied and evaluated in rats.
16 Healthy adult SD rats, half male and half female, purchased from SINO-BRITSH SIPPR/BK LAB. ANIMAL LTD., CO, Certificate No.: SCXK (Shanghai) 2008-0016, were divided into four groups, with 4 rats in each group.
The appropriate amounts of test compounds were weighed and mixed with 40 μL of tween 80 and 0.5% CMC-Na to prepare a 1 mg/mL suspension by an ultrasonic method.
After an overnight fast, 16 SD rats, half male and half female, were divided into 4 groups, with 4 rats in each group, and administered the test compounds intragastrically at a dose of 10 mg/kg, and an administration volume of 10 mL/kg.
Blood samples (0.1 mL) were taken from the orbital sinus before administration, and at 0.5 h, 1 h, 2 h, 4 h, 6 h, 8 h, 11 h, 24 h and 48 h after administration, stored in heparinized tubes, and centrifuged for 10 minutes at 3,500 rpm to separate blood plasma. The plasma samples were stored at −20° C. The rats were fed 2 hours after administration.
The concentration of the test compounds in rat plasma after intragastrically administering the test compounds was analyzed by a LC-MS/MS method. The linearity range of the method is 1.00-2000 ng/ml, and the lower limit of quantification is 1.00 ng/ml. Plasma samples were analyzed after protein precipitation.

T5 sequence (P33261 whole entry): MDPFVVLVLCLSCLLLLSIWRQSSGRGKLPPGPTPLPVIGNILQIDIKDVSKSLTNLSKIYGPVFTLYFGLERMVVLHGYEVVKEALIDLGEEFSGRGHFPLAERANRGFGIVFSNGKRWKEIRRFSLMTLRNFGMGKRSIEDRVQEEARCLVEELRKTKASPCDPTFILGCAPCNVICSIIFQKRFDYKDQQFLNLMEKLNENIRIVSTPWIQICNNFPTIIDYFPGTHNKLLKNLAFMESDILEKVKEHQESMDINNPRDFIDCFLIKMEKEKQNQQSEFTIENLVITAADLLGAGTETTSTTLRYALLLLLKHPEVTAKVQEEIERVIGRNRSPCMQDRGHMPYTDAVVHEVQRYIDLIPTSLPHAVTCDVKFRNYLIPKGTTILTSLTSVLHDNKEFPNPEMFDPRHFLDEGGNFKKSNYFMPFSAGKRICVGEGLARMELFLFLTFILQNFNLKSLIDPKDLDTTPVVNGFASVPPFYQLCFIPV
T2 sequence (P08684 whole entry): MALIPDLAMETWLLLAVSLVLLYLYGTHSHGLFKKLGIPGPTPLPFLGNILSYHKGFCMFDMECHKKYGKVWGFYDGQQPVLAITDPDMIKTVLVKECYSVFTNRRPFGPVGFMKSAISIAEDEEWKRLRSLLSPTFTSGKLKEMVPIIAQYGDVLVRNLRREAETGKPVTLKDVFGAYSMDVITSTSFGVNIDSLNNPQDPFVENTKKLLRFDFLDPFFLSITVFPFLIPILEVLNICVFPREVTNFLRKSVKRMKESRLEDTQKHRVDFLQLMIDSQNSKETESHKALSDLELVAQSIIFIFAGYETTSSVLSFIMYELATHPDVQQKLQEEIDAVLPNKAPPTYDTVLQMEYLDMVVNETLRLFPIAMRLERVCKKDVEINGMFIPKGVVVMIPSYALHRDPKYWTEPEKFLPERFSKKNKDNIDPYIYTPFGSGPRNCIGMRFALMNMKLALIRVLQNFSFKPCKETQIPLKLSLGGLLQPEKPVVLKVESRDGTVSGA
T3 sequence (P08684 whole entry): as above
Sequence of CYP2C6 (P10635 whole entry): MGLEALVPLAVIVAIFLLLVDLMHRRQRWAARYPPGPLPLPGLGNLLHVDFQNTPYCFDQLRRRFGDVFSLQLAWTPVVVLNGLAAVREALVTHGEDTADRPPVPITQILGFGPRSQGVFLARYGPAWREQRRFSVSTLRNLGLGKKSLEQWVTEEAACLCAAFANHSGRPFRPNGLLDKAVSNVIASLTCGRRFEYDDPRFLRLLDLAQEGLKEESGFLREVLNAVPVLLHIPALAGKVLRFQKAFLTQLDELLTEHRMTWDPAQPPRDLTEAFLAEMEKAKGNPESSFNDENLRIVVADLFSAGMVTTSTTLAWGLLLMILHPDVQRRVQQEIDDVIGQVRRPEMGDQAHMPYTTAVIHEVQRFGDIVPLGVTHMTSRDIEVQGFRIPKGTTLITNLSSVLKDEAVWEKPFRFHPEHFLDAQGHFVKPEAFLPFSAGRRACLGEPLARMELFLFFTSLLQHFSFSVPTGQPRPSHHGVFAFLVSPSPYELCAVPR
T4 sequence (P11712 whole entry): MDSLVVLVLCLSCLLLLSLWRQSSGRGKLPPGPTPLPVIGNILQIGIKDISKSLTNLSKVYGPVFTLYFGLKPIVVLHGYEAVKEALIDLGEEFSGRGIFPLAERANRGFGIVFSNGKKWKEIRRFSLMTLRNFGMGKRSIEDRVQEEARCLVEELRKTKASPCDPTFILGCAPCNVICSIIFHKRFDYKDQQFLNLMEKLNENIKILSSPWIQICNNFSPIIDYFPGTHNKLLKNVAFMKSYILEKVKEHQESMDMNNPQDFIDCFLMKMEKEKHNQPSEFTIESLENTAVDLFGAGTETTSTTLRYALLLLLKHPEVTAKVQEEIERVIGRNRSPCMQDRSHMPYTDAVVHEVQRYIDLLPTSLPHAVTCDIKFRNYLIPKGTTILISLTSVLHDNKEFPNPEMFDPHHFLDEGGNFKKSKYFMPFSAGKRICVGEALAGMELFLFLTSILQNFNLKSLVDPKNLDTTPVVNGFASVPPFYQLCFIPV

| SMILES | IC50 (CYP1A2) | IC50 (CYP3A4t) | IC50 (CYP3A4m) | IC50 (CYP2C9) | IC50 (CYP2C6) | IC50 (CYP2C19) | Apparent Distribution Volume Vd [1] | AUC [1] | CL/F [1] | half-life [1] | MRT [1] | Cmax [1] |
| --- | --- | --- | --- | --- | --- | --- | --- | --- | --- | --- | --- | --- |
| Cc1ncccc1Oc1cc(=O)n(C)c(Nc2ccc(I)cc2F)c1C(N)=O [Example 29, 2-((2-fluoro-4-iodophenyl)amino)-1-methyl-4-((2-methylpyridin-3-yl)oxy)-6-oxo-1,6-dihydropyridine-3-carboxamide] | > 10 µM | > 10 µM | > 10 µM | > 10 µM | > 10 µM | > 10 µM | 11.319 ± 6.87 L/kg | 6120 ± 3030 ng·h/mL | 32.9 ± 15.5 mL/min/kg | 3.79 ± 0.76 h | 3.79 ± 0.5 h | 1440 ± 396 ng/mL |
| Cc1cc(F)ccc1Oc1cc(=O)n(C)c(Nc2ccc(I)cc2F)c1C(N)=O [Example 22, 4-(4-fluoro-2-methylphenoxy)-2-((2-fluoro-4-iodophenyl)amino)-1-methyl-6-oxo-1,6-dihydropyridine-3-carboxamide] | > 10 µM | > 10 µM | > 10 µM | > 10 µM | > 10 µM | > 10 µM | 98.789 ± 42.165 L/kg | 1110 ± 746 ng·h/mL | 224 ± 151 mL/min/kg | 7.18 ± 4.64 h | 11.3 ± 6.7 h | 108 ± 38 ng/mL |
| Cc1c(F)cccc1Oc1cc(=O)n(C)c(Nc2ccc(I)cc2F)c1C(N)=O [Example 1, 4-(3-fluoro-2-methylphenoxy)-2-((2-fluoro-4-iodophenyl)amino)-1-methyl-6-oxo-1,6-dihydropyridine-3-carboxamide] | > 10 µM | > 10 µM | > 10 µM | > 10 µM | > 10 µM | > 10 µM | 163.863 ± 87.909 L/kg | 642 ± 187 ng·h/mL | 280 ± 94.6 mL/min/kg | 6.61 ± 1.66 h | 10.5 ± 2.41 h | 56.3 ± 15.6 ng/mL |
| Cc1ccc(Oc2cc(=O)n(C)c(Nc3ccc(I)cc3F)c2C(N)=O)cn1 [Example 31, 2-((2-fluoro-4-iodophenyl)amino)-1-methyl-4-((6-methylpyridin-3-yl)oxy)-6-oxo-1,6-dihydropyridine-3-carboxamide] | > 10 µM | > 10 µM | > 10 µM | > 10 µM | > 10 µM | > 10 µM | 4.483 ± 3.051 L/kg | 18100 ± 9970 ng·h/mL | 11.6 ± 5.9 mL/min/kg | 4.12 ± 0.96 h | 4.43 ± 0.96 h | 3370 ± 756 ng/mL |
| CCS(=O)(=O)Nc1cccc(Oc2cc(=O)n(C)c(Nc3ccc(I)cc3F)c2C(N)=O)c1C [Example 3, 4-(3-(ethylsulfonamido)-2-methylphenoxy)-2-((2-fluoro-4-iodophenyl)amino)-1-methyl-6-oxo-1,6-dihydropyridine-3-carboxamide] | > 50 µM | > 50 µM | > 50 µM | > 50 µM | > 50 µM | > 10 µM | – | – | – | – | – | – |
